{"source": "paper PMC3541360", "about": "(2013)", "key": {"[1]": {"tested_on": "MNSG4 (oligo TrMNS-I) (DNA, G4) TGGGTCTGAGGGAGGAGGGGCTGGGGGC", "assay": "CD melting, 295 nm", "conditions": "100 mM K+; 10 mM Tris-HCl pH 7.4; 5 µM DNA, 10 µM compound; absolute Tm, free DNA 71.4±0.5 °C"}, "[2]": {"tested_on": "MNSG4 (oligo TrMNS-I) (DNA, G4) TGGGTCTGAGGGAGGAGGGGCTGGGGGC", "assay": "fluorescent intercalator displacement (thiazole orange)", "conditions": "60 mM K+; 10 mM potassium cacodylate pH 7.4, 50 mM KCl; 0.25 µM DNA, 0.50 µM thiazole orange displaced"}, "[3]": {"tested_on": "-80 G4 (oligo Tr-80-I) (DNA, G4) CGGGGGCGCGTGAGGGGCGGGGTGGGC", "assay": "fluorescent intercalator displacement (thiazole orange)", "conditions": "60 mM K+; 10 mM potassium cacodylate pH 7.4, 50 mM KCl; 0.25 µM DNA, 0.50 µM thiazole orange displaced"}}, "data": [{"smiles": "[Cl-].[Cl-].[Cl-].[Cl-].[Cu+2].[Cu+2].c1ccc(CN(CCOc2cc(-c3ccccn3)nc(-c3ccccn3)c2)Cc2ccccn2)nc1", "values": [{"measurement": "Tm (with ligand)", "setting": "[1]", "result": "86.2±2.1", "unit": "°C"}, {"measurement": "MSN1DC50", "setting": "[2]", "result": 0.31, "unit": "µM"}, {"measurement": "−80 G4DC50", "setting": "[3]", "result": 0.19, "unit": "µM"}]}, {"smiles": "[Cl-].[Cl-].[Pt+2].[Pt+2].c1ccc(CN(CCOc2cc(-c3ccccn3)nc(-c3ccccn3)c2)Cc2ccccn2)nc1", "values": [{"measurement": "MSN1DC50", "setting": "[2]", "result": 0.39, "unit": "µM"}, {"measurement": "−80 G4DC50", "setting": "[3]", "result": 2.22, "unit": "µM"}]}, {"smiles": "[Pt+2].[S-]CCN1CCCCC1.c1ccc(-c2cc(OCCN3CCOCC3)cc(-c3ccccn3)n2)nc1", "values": [{"measurement": "MSN1DC50", "setting": "[2]", "result": 0.76, "unit": "µM"}, {"measurement": "−80 G4DC50", "setting": "[3]", "result": 0.55, "unit": "µM"}]}]}
